According to patent publication US20120270237A9, “METHODS FOR THE IDENTIFICATION OF KINASE INTERACTING MOLECULES AND FOR THE PURIFICATION OF KINASE PROTEINS” (Cellzone AG, priority 2009, published 2012):

Key:
Experiment in all cases: Kinobeads competition binding, HL60 cell lysate
Set-up in all cases: endogenous in cells
Details in all cases: 10 μM free compound
[1] = target: T1, IKKe (Homo sapiens, UniProt Q14164)
T1 sequence (Q14164 1-716): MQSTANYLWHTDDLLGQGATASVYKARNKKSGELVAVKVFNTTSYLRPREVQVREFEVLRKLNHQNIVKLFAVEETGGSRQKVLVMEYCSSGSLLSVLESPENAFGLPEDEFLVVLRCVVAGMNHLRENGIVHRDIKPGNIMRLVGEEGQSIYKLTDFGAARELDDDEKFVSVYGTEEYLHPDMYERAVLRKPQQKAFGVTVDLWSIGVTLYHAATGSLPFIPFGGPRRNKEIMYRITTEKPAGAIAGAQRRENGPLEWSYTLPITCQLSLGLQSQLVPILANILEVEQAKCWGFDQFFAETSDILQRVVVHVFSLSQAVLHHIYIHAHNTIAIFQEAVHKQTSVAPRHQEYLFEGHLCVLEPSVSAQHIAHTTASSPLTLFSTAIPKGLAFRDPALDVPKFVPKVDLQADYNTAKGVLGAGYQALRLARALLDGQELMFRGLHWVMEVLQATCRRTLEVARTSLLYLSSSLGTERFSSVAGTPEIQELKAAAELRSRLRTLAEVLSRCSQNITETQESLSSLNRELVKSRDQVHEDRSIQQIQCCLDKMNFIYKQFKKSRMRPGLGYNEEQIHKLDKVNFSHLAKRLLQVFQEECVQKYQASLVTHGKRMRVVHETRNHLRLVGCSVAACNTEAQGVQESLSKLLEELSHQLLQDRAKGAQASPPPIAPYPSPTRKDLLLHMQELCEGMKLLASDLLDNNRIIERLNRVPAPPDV
Experimental: (§1) To one aliquot of cell lysate 10 μM of the free compound (FIG. 3, CZC31326) was added and allowed to bind to proteins in the lysate. Then the affinity matrix with the immobilized compound (Example 1) was added to capture proteins that were not interacting with the previously added free compound. Beads were separated from the lysate and bead bound proteins were eluted in SDS sample buffer and subsequently separated by SDS-Polyacrylamide gel electrophoresis (FIG. 4). Suitable gel bands were cut out and subjected to in-gel proteolytic digestion with trypsin. The second lysate aliquot was processed identically, however no free compound was added (DMSO solvent control). Peptides originating from samples 1 and 2 were labeled with iTRAQ reagents (iTRAQ 114 and iTRAQ 117) and the combined samples were analyzed with a nano-flow liquid chromatography system coupled online to a tandem mass spectrometer (LC-MS/MS) experiment followed by iTRAQ reporter ion quantification in the MS/MS spectra (Ross et al., 2004. Mol. Cell. Proteomics 3(12):1154-1169). Further experimental protocols can be found in WO2006/134056 and a previous publication (Bantscheff et al., 2007. Nature Biotechnology 25, 1035-1044). Sepharose-beads with the immobilized compound (100 μl beads per pull-down experiment) were equilibrated in lysis buffer and incubated with a cell lysate sample containing 50 mg of protein on an end-over-end shaker (Roto Shake Genie, Scientific Industries Inc.) for 2 hours at 4° C. Beads were collected, transferred to Mobicol-columns (MoBiTech 10055) and washed with 10 ml lysis buffer containing 0.4% NP40 detergent, followed by 5 ml lysis buffer containing 0.2% detergent. To elute bound proteins, 60 μl 2×SDS sample buffer was added to the column. The column was incubated for 30 minutes at 50° C. and the eluate was transferred to a siliconized microfuge tube by centrifugation. Proteins were then alkylated with 108 mM iodoacetamid. Proteins were then separated by SDS-Polyacrylamide electrophoresis (SDS-PAGE). The peptide extracts of samples treated with 10 μM of free compound (CZC31326) and the solvent control (0.5% DMSO) were treated with different variants of the isobaric tagging reagent (iTRAQ Reagents Multiplex Kit, part number 4352135, Applied Biosystems, Foster City, Calif., USA). The iTRAQ reagents are a set of multiplexed, amine-specific, stable isotope reagents that can label peptides on amino groups in up to four different biological samples enabling simultaneous identification and quantitation of peptides. The iTRAQ reagents were used according to instructions provided by the manufacturer. The samples were resuspended in 10 μl 50 mM TEAB solution, pH 8.5 and 10 μl ethanol were added. The iTRAQ reagent was dissolved in 120 μl ethanol and 10 μl of reagent solution were added to the sample. The labeling reaction was performed at room temperature for one hour on a horizontal shaker and stopped by adding 5 μl of 100 mM TEAB and 100 mM glycine in water. The two labeled sampled were then combined, dried in a vacuum centrifuge and resuspended in 10 μl of 0.1% formic acid in water. Relative protein quantitation was performed using peak areas of iTRAQ reporter ion signals essentially as described in an earlier publication (Bantscheff et al., 2007. Nature Biotechnology 25, 1035-1044).

[2] = target: T2, TBK1 (Homo sapiens, UniProt Q9UHD2)
T2 sequence (Q9UHD2 1-729): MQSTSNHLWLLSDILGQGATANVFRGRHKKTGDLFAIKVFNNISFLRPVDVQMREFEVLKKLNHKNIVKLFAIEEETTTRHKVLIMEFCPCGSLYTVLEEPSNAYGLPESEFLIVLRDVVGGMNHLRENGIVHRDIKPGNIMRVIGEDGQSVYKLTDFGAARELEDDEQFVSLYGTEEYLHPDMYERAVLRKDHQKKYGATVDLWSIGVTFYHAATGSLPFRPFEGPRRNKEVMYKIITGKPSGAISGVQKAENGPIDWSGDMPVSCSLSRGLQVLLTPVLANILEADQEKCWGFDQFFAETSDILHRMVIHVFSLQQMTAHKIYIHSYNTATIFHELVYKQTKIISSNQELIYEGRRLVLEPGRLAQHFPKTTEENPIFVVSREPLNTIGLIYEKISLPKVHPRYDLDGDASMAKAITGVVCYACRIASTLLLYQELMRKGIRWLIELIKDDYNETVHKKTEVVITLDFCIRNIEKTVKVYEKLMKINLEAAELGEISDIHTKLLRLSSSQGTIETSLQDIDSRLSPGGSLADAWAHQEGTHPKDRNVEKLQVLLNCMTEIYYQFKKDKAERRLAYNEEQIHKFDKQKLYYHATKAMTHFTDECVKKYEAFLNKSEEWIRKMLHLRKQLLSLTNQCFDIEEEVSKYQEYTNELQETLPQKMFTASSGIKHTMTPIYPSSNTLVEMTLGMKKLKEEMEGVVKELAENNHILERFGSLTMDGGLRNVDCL
Experimental: as §1

[3] = target: FES (Homo sapiens, UniProt P07332)
Experimental: as §1

[4] = target: PKCa (Homo sapiens, UniProt P17252)
Experimental: as §1

[5] = target: JNK1 (Homo sapiens, UniProt P45983)
Experimental: as §1

Sequence of JNK1 (P45983 whole entry): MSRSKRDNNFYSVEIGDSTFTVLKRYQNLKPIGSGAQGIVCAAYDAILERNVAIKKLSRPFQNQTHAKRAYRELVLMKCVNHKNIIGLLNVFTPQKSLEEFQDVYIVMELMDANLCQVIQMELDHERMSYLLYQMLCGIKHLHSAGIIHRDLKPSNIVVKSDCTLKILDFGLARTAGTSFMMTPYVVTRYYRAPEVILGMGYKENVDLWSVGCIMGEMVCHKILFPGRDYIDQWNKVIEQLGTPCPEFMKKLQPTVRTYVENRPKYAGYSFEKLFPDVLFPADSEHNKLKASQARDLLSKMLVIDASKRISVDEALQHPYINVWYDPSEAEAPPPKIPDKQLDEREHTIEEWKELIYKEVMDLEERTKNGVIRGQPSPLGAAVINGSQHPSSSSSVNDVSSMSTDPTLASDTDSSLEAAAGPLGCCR
Sequence of FES (P07332 whole entry): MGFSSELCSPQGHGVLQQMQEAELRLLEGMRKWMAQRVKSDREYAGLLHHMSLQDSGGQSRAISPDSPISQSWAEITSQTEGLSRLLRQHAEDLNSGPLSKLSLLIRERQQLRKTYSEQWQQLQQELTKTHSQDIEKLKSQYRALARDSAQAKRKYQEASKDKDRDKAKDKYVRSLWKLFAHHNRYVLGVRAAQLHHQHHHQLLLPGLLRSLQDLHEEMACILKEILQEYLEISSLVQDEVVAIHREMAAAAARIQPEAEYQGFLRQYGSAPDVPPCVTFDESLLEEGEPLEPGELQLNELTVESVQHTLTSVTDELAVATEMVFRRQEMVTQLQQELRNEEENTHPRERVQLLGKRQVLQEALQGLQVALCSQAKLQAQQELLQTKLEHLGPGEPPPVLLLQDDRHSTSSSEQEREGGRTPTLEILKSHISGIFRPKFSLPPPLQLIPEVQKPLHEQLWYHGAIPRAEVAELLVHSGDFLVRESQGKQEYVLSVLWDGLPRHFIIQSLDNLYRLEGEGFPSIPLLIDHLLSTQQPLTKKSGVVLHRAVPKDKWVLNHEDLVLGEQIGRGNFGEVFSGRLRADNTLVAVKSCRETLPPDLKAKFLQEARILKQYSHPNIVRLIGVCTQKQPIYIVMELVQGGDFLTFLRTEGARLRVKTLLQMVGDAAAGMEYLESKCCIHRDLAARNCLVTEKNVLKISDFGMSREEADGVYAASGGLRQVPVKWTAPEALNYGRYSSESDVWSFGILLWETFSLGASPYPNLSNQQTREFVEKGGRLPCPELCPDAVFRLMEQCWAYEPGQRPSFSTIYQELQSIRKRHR

inhibition at 10 µM [1]: 91.4%
inhibition at 10 µM [2]: 94.8%
inhibition at 10 µM [3]: 96.3%
inhibition at 10 µM [4]: 96.2%
Competition % [5]: 88.8%
Compound: CS(=O)(=O)Nc1ccccc1Nc1nc(Nc2cccc(OCCN)c2)ncc1Cl [CZC31326, N-(2-(2-(3-(2-aminoethoxy)phenylamino)-5-chloropyrimidin-4-ylamino)phenyl)methanesulfonamide]
